Measurements published in US5637582A, “Peripheral circulation improving agent” (priority 1992, dated 1997).

Legend:
[1] = system: mouse; assay: Acute oral toxicity in mouse; format: in vivo; conditions: 1000 mg/kg oral, even after 2 days
Description: Furthermore, a (-)-cis-1,5-benzothiazepine derivative according to formula (I) has low toxicity and can be used safely.

[2] = system: arterial blood pressure; assay: Change of arterial blood pressure in anesthetized dogs (Experimental Example 4); conditions: 100 μg/kg i.v.
Method: Each test compound was intravenously administered to adult dogs (one group consisting of 2 or 4 dogs) under anesthesia and artificial respiration at a dose of 100 μg/kg body weight. Femoral arterial blood flow, vertebral arterial blood flow and arterial blood pressure were measured 1, 3, 5, 10, 20 and 30 minutes after the administration. The femoral arterial blood flow and vertebral arterial blood flow were measured with an electromagnetic blood flowmeter (manufactured by Nihon Koden, MFV-2100, trade name) through a flow probe attached to the femoral artery or vertebral artery. The arterial blood pressure was measured with a pressure transducer (manufactured by Millar, MICRO-TIP, Model SPC-350) through a catheter attached to the brachial artery.
Changes of the femoral arterial blood flow, vertebral arterial blood flow and arterial blood pressure were estimated by comparing the values measured before and after the administration of the test compound.

[3] = system: femoral artery; assay: Time course of femoral arterial blood flow in dogs after i.v. administration (Experimental Example 2); format: in vivo, dog
[4] = system: right anterior tibial muscle; assay: Abdominal aorta knot-anterior tibial muscle contraction model: model of Buerger's disease (Experimental Example 6); format: in vivo, rat; parameters: Change in contraction of the right anterior tibial muscle: unit not given here; conditions: 10 mg/kg/day p.o. 2 weeks
Method: (Abdominal aorta knot-anterior tibial muscle contraction model: Model of Buerger's disease)
Rats were previously divided into four groups (Group I: sham operation+5 ml/kg/day of distilled water, Group II: sham operation+10 mg/kg/day of the test compound A, Group III: abdominal aorta knot+5 ml/kg/day of distilled water, and Group IV: abdominal aorta knot+10 mg/kg/day of the test compound A), and operated under anesthesia, 10 mg/kg/day of the test compound A or 5 ml/kg/day of distilled water was orally administered to respective rats, to which an abdominal aorta was knotted or a sham operation was applied, for 2 weeks. Thereafter, a catheter was inserted into a trachea to secure airway under anesthesia. A skin at the right hind leg was cut to expose a muscle and a right anterior tibial muscle was isolated. After the operation, at the time that the state became stable, 10 mg/kg of the test compound A or 1 ml/kg of 0.25% CMC was administered into a duodenum. After 60 minutes from the administration, a tendon of the right anterior tibial muscle was connected with a transducer and the right anterior tibial muscle was directly stimulated electrically with platinum electrodes at 0.5 Hz to obtain a Force-Current curve. Then, electrical stimulation was carried out with a current which submaximally contracted the right anterior tibial muscle and a stimulation frequency of 1.5 Hz for 30 minutes to observe the progress. […]

[5] = system: arterial blood pressure; parameters: species or system male SD rat; conditions: rat, in vivo
Method: (Lower limbs peripheral circulation disorder model due to hind leg cooling: Model of Raynaud's disease) […] TP-200T, trade name) through a catheter attached to the artery. […] After the operation, at the time that the state became stable, the left hind leg was exposed to a perfused solution at 10° C. to decrease the femoral arterial blood flow. […] In the case of Beraprost Na, continuous injection in an amount of […] was carried out after 30 minutes from cooling. […] The present model is disclosed, for example, in Nishio et al, "Effect of Beraprost Sodium on Peripheral Circulatory Disturbances Induced by Various Stimuli", Arzneim.-Forsch./Drug Res., 39 (II), Nr. 10 (1989), pp. 1229-1234. Note particularly the section "2.4. Sphygmometry in rat hind paw", at page 1230.

[6] = system: hind leg edema; assay: Hind leg frostbite model: model of Raynaud's disease (Experimental Example 7); format: in vivo, male SD rat
Method: (Hind leg frostbite model: Model of Raynaud's disease)
Left hind leg of male SD rat (one group: 3 to 5 rats) was dipped in dry ice-ethanol for 2 seconds, and after 30 minutes, 30 mg/kg of a test compound dissolved in pure water was administered to the rat and then orally administered twice a day for 6 days continuously. At the final day of the experiment, volumes of both hind legs (below ankle joint) of the rat were measured by a water substitution method and an edema ratio was calculated from the following equation. Also, an inhibition ratio of the test compound administered group was obtained by comparing the edema ratio of the group in which the test compound was not administered. [formula]
The present model is disclosed, for example, in Hayashi et al, "Pharmacological Studies on Niceritrol (10), The Effects on Experimental Models of Peripherally Circulatory Insufficiency", Applied Pharmacology, 24 (6): 859-864 (1982), noting particularly the section "2. Effect on an experimental frostbite model" on page 860.

[7] = system: femoral artery; assay: Femoral arterial blood flow, hind leg cooling model of Raynaud's disease (Experimental Example 5); format: in vivo, male SD rat
Method: (Lower limbs peripheral circulation disorder model due to hind leg cooling: Model of Raynaud's disease)
A catheter was inserted into left common carotid artery of a male SD rat (one group consisting of 5 rats) under anesthesia, and the arterial blood pressure was measured with a standard pressure transducer (manufactured by Nihon Koden. TP-200T, trade name) through a catheter attached to the artery. After isolating the left femoral artery from the peripheral connective tissue, a flow probe (HDP 10-20R: F 1.0 mm) of a Doppler blood flow meter (manufactured by Crystal Biotec Co., PD20, trade name) was attached thereto and was connected to the Doppler blood flow meter to measure the artery blood flow. After the operation, at the time that the state became stable, the left hind leg was exposed to a perfused solution at 10° C. to decrease the femoral arterial blood flow. After 30 minutes, 1 ml/kg of a 0.9% NaCl solution or 300 μg/kg of the test compound A was intravenously administered and the state was observed. In the case of Beraprost Na, continuous injection in an amount of […] was carried out after 30 minutes from cooling. The compounds to be used were each dissolved in a 0.9% NaCl solution.
The present model is disclosed, for example, in Nishio et al, "Effect of Beraprost Sodium on Peripheral Circulatory Disturbances Induced by Various Stimuli", Arzneim.-Forsch./Drug Res., 39 (II), Nr. 10 (1989), pp. 1229-1234. Note particularly the section "2.4. Sphygmometry in rat hind paw", at page 1230.

[8] = 30 mg/kg, orally twice a day for 6 days

## CC(=O)O[C@@H]1C(=O)N(CCN(C)C)c2ccc(C)cc2S[C@@H]1c1ccc(C)cc1 [Compound A]
[1]
  lethal toxicity: no lethal toxicity was observed
[2]; 1 min
  Arterial Blood Pressure change (side effects): -1.3 ΔmmHg
[2]; 3 min
  Arterial Blood Pressure change (side effects): -0.8 ΔmmHg
[2]; 5 min
  Arterial Blood Pressure change (side effects): -1.8 ΔmmHg
[2]; 10 min
  Arterial Blood Pressure change (side effects): -1.8 ΔmmHg
[2]; 20 min
  Arterial Blood Pressure change (side effects): -2.3 ΔmmHg
[2]; 30 min
  Arterial Blood Pressure change (side effects): -0.5 ΔmmHg
[2]; G and H: one minute after, in words
  effect on arterial blood pressure: substantially no effect
[3]; 100 μg/kg i.v., 30 min
  Blood flow (femoral artery): 136.3 mL/min
  Increase in blood flow (femoral artery): 55.5 mL/min
[3]; 100 μg/kg i.v., 60 min
  Blood flow (femoral artery): 146.3 mL/min
  Increase in blood flow (femoral artery): 65.5 mL/min
[3]; 100 μg/kg i.v., 120 min
  Blood flow (femoral artery): 143.5 mL/min
  Increase in blood flow (femoral artery): 62.8 mL/min
[3]; 100 μg/kg i.v., 180 min
  Blood flow (femoral artery): 141.3 mL/min
  Increase in blood flow (femoral artery): 60.5 mL/min
[3]; 100 μg/kg i.v., 240 min
  Blood flow (femoral artery): 141.5 mL/min
  Increase in blood flow (femoral artery): 60.8 mL/min
[3]; 100 μg/kg i.v., 300 min
  Blood flow (femoral artery): 136.3 mL/min
  Increase in blood flow (femoral artery): 55.5 mL/min
[3]; before administration (baseline)
  Blood flow (femoral artery): 80.8 mL/min
[4]; Group II: sham operation
  Time (min) until 20A% contraction: 16.65 ± 2.99 min
[4]; Group II: sham operation, 1 min
  Change in contraction of the right anterior tibial muscle: 3.29
[4]; Group II: sham operation, 3 min
  Change in contraction of the right anterior tibial muscle: 1.71
[4]; Group II: sham operation, 5 min
  Change in contraction of the right anterior tibial muscle: -1.29
[4]; Group II: sham operation, 10 min
  Change in contraction of the right anterior tibial muscle: -12.88
[4]; Group II: sham operation, 15 min
  Change in contraction of the right anterior tibial muscle: -20.91
[4]; Group II: sham operation, 20 min
  Change in contraction of the right anterior tibial muscle: -25.66
[4]; Group II: sham operation, 30 min
  Change in contraction of the right anterior tibial muscle: -30.19
[4]; Group IV: abdominal aorta knot
  Time (min) until 20A% contraction: 17.27 ± 3.70 min
[4]; Group IV: abdominal aorta knot, 1 min
  Change in contraction of the right anterior tibial muscle: 2.44
[4]; Group IV: abdominal aorta knot, 3 min
  Change in contraction of the right anterior tibial muscle: -1.04
[4]; Group IV: abdominal aorta knot, 5 min
  Change in contraction of the right anterior tibial muscle: -4.35
[4]; Group IV: abdominal aorta knot, 10 min
  Change in contraction of the right anterior tibial muscle: -15.46
[4]; Group IV: abdominal aorta knot, 15 min
  Change in contraction of the right anterior tibial muscle: -21.82
[4]; Group IV: abdominal aorta knot, 20 min
  Change in contraction of the right anterior tibial muscle: -25.98
[4]; Group IV: abdominal aorta knot, 30 min
  Change in contraction of the right anterior tibial muscle: -30.17
[5]
  Mean Arterial Pressure change: 0.00 Δ mmHg
[6]; [8]
  % Inhibition of edema: 27%
  Edema: 32 ± 8%
[6]; rat hind leg frostbite model, in words
  edema inhibition activity: showed edema inhibition activity
[7]; 0 min (before cooling and administration; 30 min = 0)
  Femoral Arterial Blood Flow change: 1.364 Δ ml/min
[7]; 40 min, given at 30 min: A 300 μg/kg i.v., J 0.3 μg/kg/ml continuous injection
  Femoral Arterial Blood Flow change: 0.072 Δ ml/min
[7]; 50 min, given at 30 min: A 300 μg/kg i.v., J 0.3 μg/kg/ml continuous injection
  Femoral Arterial Blood Flow change: 0.276 Δ ml/min
[7]; 60 min, given at 30 min: A 300 μg/kg i.v., J 0.3 μg/kg/ml continuous injection
  Femoral Arterial Blood Flow change: 0.416 Δ ml/min
[7]; 70 min, given at 30 min: A 300 μg/kg i.v., J 0.3 μg/kg/ml continuous injection
  Femoral Arterial Blood Flow change: 0.452 Δ ml/min
[7]; 80 min, given at 30 min: A 300 μg/kg i.v., J 0.3 μg/kg/ml continuous injection
  Femoral Arterial Blood Flow change: 0.452 Δ ml/min
[7]; 90 min, given at 30 min: A 300 μg/kg i.v., J 0.3 μg/kg/ml continuous injection
  Femoral Arterial Blood Flow change: 0.496 Δ ml/min
